ChEMBL document CHEMBL1130531, “A new series of selective dopamine D4 ligands: 3-([4-arylpiperazin-1-yl]alkylamino)-2H-1,4-benzoxazines” (Bioorg Med Chem Lett, 1997)

What was measured:
Assay type in all cases: cell-based
D(4) dopamine receptor = biological target: T1, D(4) dopamine receptor (Homo sapiens, UniProt P21917); experiment: Binding affinity at cloned human D4 dopamine receptor in CHO cells using [3H]-YM 09151 as radioligand
T1 sequence (P21917 whole entry): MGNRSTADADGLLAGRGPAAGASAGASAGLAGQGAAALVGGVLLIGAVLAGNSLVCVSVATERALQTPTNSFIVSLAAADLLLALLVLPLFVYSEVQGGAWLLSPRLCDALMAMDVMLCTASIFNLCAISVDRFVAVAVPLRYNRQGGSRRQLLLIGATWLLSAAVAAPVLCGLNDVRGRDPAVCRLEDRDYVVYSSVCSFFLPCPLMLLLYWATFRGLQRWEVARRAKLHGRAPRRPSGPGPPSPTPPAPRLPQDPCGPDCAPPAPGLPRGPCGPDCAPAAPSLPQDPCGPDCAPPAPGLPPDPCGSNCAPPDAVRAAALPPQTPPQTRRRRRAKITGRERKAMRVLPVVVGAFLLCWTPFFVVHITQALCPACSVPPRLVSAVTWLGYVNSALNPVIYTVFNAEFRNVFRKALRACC

D(3) dopamine receptor = D(3) dopamine receptor (Homo sapiens, UniProt P35462); experiment: Binding affinity at cloned human D3 dopamine receptor in CHO cells using [3H]-YM 09151 as radioligand
D(2) dopamine receptor = D(2) dopamine receptor (Homo sapiens, UniProt P14416); experiment: Binding affinity at cloned human D2 dopamine receptor in CHO cells using [3H]-YM 09151 as radioligand
Sequence of D(2) dopamine receptor (P14416 whole entry): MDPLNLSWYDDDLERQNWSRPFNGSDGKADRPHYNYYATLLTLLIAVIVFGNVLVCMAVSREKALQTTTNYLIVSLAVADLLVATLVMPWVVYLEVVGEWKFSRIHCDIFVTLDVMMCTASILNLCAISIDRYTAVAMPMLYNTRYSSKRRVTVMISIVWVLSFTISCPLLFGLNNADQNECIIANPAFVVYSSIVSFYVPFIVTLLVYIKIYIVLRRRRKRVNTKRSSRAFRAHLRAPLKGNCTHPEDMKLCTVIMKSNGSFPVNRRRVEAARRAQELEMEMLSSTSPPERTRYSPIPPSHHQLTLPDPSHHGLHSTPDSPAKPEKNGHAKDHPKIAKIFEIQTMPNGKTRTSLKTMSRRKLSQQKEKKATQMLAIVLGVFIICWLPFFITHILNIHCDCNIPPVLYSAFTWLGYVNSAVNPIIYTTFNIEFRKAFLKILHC

Sequence of D(3) dopamine receptor (P35462 whole entry): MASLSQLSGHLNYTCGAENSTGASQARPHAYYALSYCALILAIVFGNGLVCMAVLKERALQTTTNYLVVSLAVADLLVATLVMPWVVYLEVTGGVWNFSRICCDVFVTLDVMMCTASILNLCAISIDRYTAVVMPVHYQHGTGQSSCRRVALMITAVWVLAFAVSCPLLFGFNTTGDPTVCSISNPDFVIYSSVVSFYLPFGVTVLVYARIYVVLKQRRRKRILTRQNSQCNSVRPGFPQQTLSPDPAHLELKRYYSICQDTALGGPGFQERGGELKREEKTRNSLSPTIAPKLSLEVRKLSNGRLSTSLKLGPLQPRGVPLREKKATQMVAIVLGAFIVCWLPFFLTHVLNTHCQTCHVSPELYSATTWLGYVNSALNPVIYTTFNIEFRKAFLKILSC

SMILES: c1ccc2c(c1)N=C(NCCCCCN1CCN(c3ccc4ccccc4n3)CC1)CO2
- Ki (D(4) dopamine receptor): 125 nM

SMILES: COc1ccccc1N1CCN(CCCNC2=Nc3ccccc3OC2)CC1
- Ki (D(3) dopamine receptor): > 1000 nM
- Ki (D(4) dopamine receptor): 3 nM
- Ki (D(2) dopamine receptor): 280 nM
